Laboratory results as given in the supplement of paper PMC10307832.

Columns and labels:
Experiment in all cases: relative viability (nuclei count vs DMSO), 5 days (fraction); higher = more cells survive
NCI-H460 = test system: NCI-H460
Outline: (§1)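 Medians of duplicate plates are given as relative viability. That measure is the nuclei count in treated wells divided by the count in vehicle wells. Counts were taken on 4× images of lung cancer cell lines in 1536-well plates, 5 days after pin-tool dosing the day after seeding with one drug alone or a fixed anchor-drug dose plus five library-drug doses (not always all listed) in √10 steps.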

HCC-827 = test system: HCC-827
Outline: as §1

HARA = test system: HARA
Outline: as §1

ChaGo-K-1 = test system: ChaGo-K-1
Outline: as §1

LC-2-ad = test system: LC-2-ad
Outline: as §1

EKVX = test system: EKVX
Outline: as §1

NCI-H1437 = test system: NCI-H1437
Outline: as §1

H3255 = test system: H3255
Outline: as §1

PC-3 [JPC-3] = test system: PC-3 [JPC-3]
Outline: as §1

NCI-H661 = test system: NCI-H661
Outline: as §1

LCLC-97TM1 = test system: LCLC-97TM1
Outline: as §1

NCI-H2126 = test system: NCI-H2126
Outline: as §1

NCI-H322M = test system: NCI-H322M
Outline: as §1

SK-LU-1 = test system: SK-LU-1
Outline: as §1

LU99A = test system: LU99A
Outline: as §1

HCC-15 = test system: HCC-15
Outline: as §1

NCI-H1792 = test system: NCI-H1792
Outline: as §1

NCI-H1915 = test system: NCI-H1915
Outline: as §1

NCI-H441 = test system: NCI-H441
Outline: as §1

EMC-BAC-2 = test system: EMC-BAC-2
Outline: as §1

NCI-H1944 = test system: NCI-H1944
Outline: as §1

NCI-H1793 = test system: NCI-H1793
Outline: as §1

NCI-H23 = test system: NCI-H23
Outline: as §1

SMILES: O=C(O)CCCCC(CCSCc1ccccc1)SCc1ccccc1 (stereo not drawn) [CPI-613] + COc1cccc2cc(-c3nc([C@H]4CC[C@H](C(=O)O)CC4)n4ncnc(N)c34)[nH]c12 [OSI-027] (partner 0.5 µM)
- relative viability (NCI-H460; first compound 5 µM): 0.636
- relative viability (NCI-H460; first compound 15.81 µM): 0.422
- relative viability (NCI-H460; first compound 50 µM): 0.535
- relative viability (NCI-H460; first compound 158.11 µM): 0.173
- relative viability (NCI-H460; first compound 500 µM): 0.0125
- relative viability (HCC-827; first compound 5 µM): 0.745
- relative viability (HCC-827; first compound 15.81 µM): 0.717
- relative viability (HCC-827; first compound 50 µM): 0.673
- relative viability (HCC-827; first compound 158.11 µM): 0.431
- relative viability (HCC-827; first compound 500 µM): 0.48
- relative viability (HARA; first compound 15.81 µM): 0.482
- relative viability (HARA; first compound 50 µM): 0.387
- relative viability (HARA; first compound 158.11 µM): 0.188
- relative viability (HARA; first compound 500 µM): 0.0367
- relative viability (ChaGo-K-1; first compound 5 µM): 0.61
- relative viability (ChaGo-K-1; first compound 15.81 µM): 0.509
- relative viability (ChaGo-K-1; first compound 50 µM): 0.53
- relative viability (ChaGo-K-1; first compound 158.11 µM): 0.377
- relative viability (ChaGo-K-1; first compound 500 µM): 0.0966
- relative viability (LC-2-ad; first compound 5 µM): 0.893
- relative viability (LC-2-ad; first compound 15.81 µM): 0.744
- relative viability (LC-2-ad; first compound 50 µM): 0.8
- relative viability (LC-2-ad; first compound 158.11 µM): 0.505
- relative viability (LC-2-ad; first compound 500 µM): 0.0505
- relative viability (EKVX; first compound 5 µM): 0.631
- relative viability (EKVX; first compound 15.81 µM): 0.624
- relative viability (EKVX; first compound 50 µM): 0.718
- relative viability (EKVX; first compound 158.11 µM): 0.673
- relative viability (EKVX; first compound 500 µM): 0.693
- relative viability (NCI-H1437; first compound 5 µM): 0.892
- relative viability (NCI-H1437; first compound 15.81 µM): 0.814
- relative viability (NCI-H1437; first compound 50 µM): 0.818
- relative viability (NCI-H1437; first compound 158.11 µM): 0.245
- relative viability (NCI-H1437; first compound 500 µM): 0.0279
- relative viability (H3255; first compound 5 µM): 0.569
- relative viability (H3255; first compound 15.81 µM): 0.501
- relative viability (H3255; first compound 50 µM): 0.612
- relative viability (H3255; first compound 500 µM): 0.471
- relative viability (PC-3 [JPC-3]; first compound 5 µM): 0.753
- relative viability (PC-3 [JPC-3]; first compound 15.81 µM): 0.658
- relative viability (PC-3 [JPC-3]; first compound 50 µM): 0.729
- relative viability (PC-3 [JPC-3]; first compound 158.11 µM): 0.517
- relative viability (PC-3 [JPC-3]; first compound 500 µM): 0.276
- relative viability (NCI-H661; first compound 5 µM): 0.684
- relative viability (NCI-H661; first compound 15.81 µM): 0.601
- relative viability (NCI-H661; first compound 50 µM): 0.597
- relative viability (NCI-H661; first compound 158.11 µM): 0.413
- relative viability (NCI-H661; first compound 500 µM): 0.126
- relative viability (LCLC-97TM1; first compound 5 µM): 0.508
- relative viability (LCLC-97TM1; first compound 15.81 µM): 0.519
- relative viability (LCLC-97TM1; first compound 50 µM): 0.67
- relative viability (LCLC-97TM1; first compound 158.11 µM): 0.474
- relative viability (LCLC-97TM1; first compound 500 µM): 0.0503
- relative viability (NCI-H2126; first compound 5 µM): 0.66
- relative viability (NCI-H2126; first compound 15.81 µM): 0.643
- relative viability (NCI-H2126; first compound 50 µM): 0.7
- relative viability (NCI-H2126; first compound 158.11 µM): 0.448
- relative viability (NCI-H2126; first compound 500 µM): 0.63
- relative viability (NCI-H322M; first compound 5 µM): 0.511
- relative viability (NCI-H322M; first compound 15.81 µM): 0.422
- relative viability (NCI-H322M; first compound 50 µM): 0.515
- relative viability (NCI-H322M; first compound 158.11 µM): 0.336
- relative viability (NCI-H322M; first compound 500 µM): 0.0015
- relative viability (SK-LU-1; first compound 5 µM): 0.285
- relative viability (SK-LU-1; first compound 15.81 µM): 0.26
- relative viability (SK-LU-1; first compound 50 µM): 0.296
- relative viability (SK-LU-1; first compound 158.11 µM): 0.152
- relative viability (SK-LU-1; first compound 500 µM): 0.0346
- relative viability (LU99A; first compound 5 µM): 0.29
- relative viability (LU99A; first compound 15.81 µM): 0.279
- relative viability (LU99A; first compound 50 µM): 0.262
- relative viability (LU99A; first compound 158.11 µM): 0.24
- relative viability (LU99A; first compound 500 µM): 0.0972
- relative viability (HCC-15; first compound 5 µM): 0.552
- relative viability (HCC-15; first compound 15.81 µM): 0.602
- relative viability (HCC-15; first compound 50 µM): 0.586
- relative viability (HCC-15; first compound 158.11 µM): 0.364
- relative viability (HCC-15; first compound 500 µM): 0.0388
- relative viability (NCI-H1792; first compound 5 µM): 0.653
- relative viability (NCI-H1792; first compound 15.81 µM): 0.65
- relative viability (NCI-H1792; first compound 50 µM): 0.693
- relative viability (NCI-H1792; first compound 158.11 µM): 0.666
- relative viability (NCI-H1792; first compound 500 µM): 0.614
- relative viability (NCI-H1915; first compound 5 µM): 0.557
- relative viability (NCI-H1915; first compound 15.81 µM): 0.538
- relative viability (NCI-H1915; first compound 50 µM): 0.485
- relative viability (NCI-H1915; first compound 158.11 µM): 0.447
- relative viability (NCI-H1915; first compound 500 µM): 0.001
- relative viability (NCI-H441; first compound 5 µM): 0.615
- relative viability (NCI-H441; first compound 15.81 µM): 0.596
- relative viability (NCI-H441; first compound 50 µM): 0.586
- relative viability (NCI-H441; first compound 158.11 µM): 0.255
- relative viability (NCI-H441; first compound 500 µM): 0.0397
- relative viability (EMC-BAC-2; first compound 5 µM): 0.385
- relative viability (EMC-BAC-2; first compound 15.81 µM): 0.334
- relative viability (EMC-BAC-2; first compound 50 µM): 0.337
- relative viability (EMC-BAC-2; first compound 158.11 µM): 0.181
- relative viability (EMC-BAC-2; first compound 500 µM): 0.0272
- relative viability (NCI-H1944; first compound 5 µM): 0.391
- relative viability (NCI-H1944; first compound 15.81 µM): 0.388
- relative viability (NCI-H1944; first compound 50 µM): 0.351
- relative viability (NCI-H1944; first compound 158.11 µM): 0.274
- relative viability (NCI-H1944; first compound 500 µM): 0.0492
- relative viability (NCI-H1793; first compound 5 µM): 0.277
- relative viability (NCI-H1793; first compound 15.81 µM): 0.241
- relative viability (NCI-H1793; first compound 50 µM): 0.245
- relative viability (NCI-H1793; first compound 158.11 µM): 0.171
- relative viability (NCI-H1793; first compound 500 µM): 0.0629
- relative viability (NCI-H23; first compound 5 µM): 0.651
- relative viability (NCI-H23; first compound 15.81 µM): 0.531
- relative viability (NCI-H23; first compound 50 µM): 0.62
- relative viability (NCI-H23; first compound 158.11 µM): 0.263
- relative viability (NCI-H23; first compound 500 µM): 0.0292
